Results from patent US10130695B2, “Compositions containing combinations of bioactive molecules derived from microbiota for treatment of disease” (priority 2013, dated 2018).

Columns and labels:
[1] = test system: Splenic naïve (CD44loCD62Lhi) CD4+ T cells; assay: Treg induction in vitro (FACS); format: cell-based; details: anti-CD3/anti-CD28 mAb-coated beads, TGF-β; compared to no treatment control; FIG. 1
Description: First, to gain mechanistic insight into the induction of Tregs by bacteria belonging to Clostridium Clusters IV, XIVa, and XVIII, germ-free mice were colonized with a cocktail of bacteria comprising bacterial strains belonging to Clostridium Cluster IV, bacterial strains belonging to Clostridium Cluster XIVa, and bacterial strains belonging to Clostridium Cluster XVIII (“Clostridium-colonized mice”). To identify metabolites potentially involved in Treg induction, the hundreds of metabolites present in the luminal composition of Clostridium-colonized, ex-germ free mice were painstakingly investigated with NMR-based metabolome analysis coupled with principal component analysis (PCA). […] The influence of acetate, propionate, and butyrate on Treg induction in vitro was measured as follows: Splenic naïve (CD44^loCD62L^hi) CD4+ T cells were stimulated with anti-CD3 and anti-CD28 mAb-coated beads and cultured in the presence of T-cell antigen receptor signaling and TGF-β with or without each of these short-chain fatty acids listed above.

[2] = test system: OT-I CD8 T cells with colonic lamina propria CD4+CD25+ Treg cells; assay: Cognate antigen-driven suppression assay; format: cell-based, mice; details: experiment repeated adding flagellin; after 3 days
Protocol: Fourth, investigation was carried to determine whether bacteria belonging to Clostridium Clusters IV, XIVa, and XVIII provide bacterial antigens to T cells. To do this, assessment was carried out of the antigen specificity of Tregs accumulated in mice colonized by a mixture of 17strains belonging to Clostridium Clusters, […] (“17-mix”) using a cognate antigen-driven suppression assay. […] CD 11c+cells were isolated from spleens of SPF C57BL/6 mice, pulsed with 0.5 μM SIINFEKL (SEQ ID NO: 2) OT-I peptide alone or in combination with either of 5μM ISQAVHAAHAEINEAGR (SEQ ID NO: 3) OT-II peptide or autoclaved caecal contents from +17-mix mice, and plated at 5 x 10^4well. CD8OT-I T cells (Teff) were added to the CD11c+cell-seeded plates at 5 x 10^4/well. Then, CD4+CD25+T cells sorted from colonic LP of +17-mix mice (LP Treg) or from spleens of SPF OT-II mice (OT-II Treg) were added to the culture at the indicated ratio of Treg to Teff cells. After 3 days, all cells were harvested, stained with anti-CD4 and anti-CD8antibodies, and analysed by flow cytometry to enumerate the number of CD8 OT-I T cells. Depicted data in FIG. 4b represent average of duplicates. […]

CC(=O)O [acetate]
differentiation of Treg cells [1]: enhanced differentiation of Treg cells

CCC(=O)O [propionate]
differentiation of Treg cells [1]: enhanced differentiation of Treg cells

B1: flagellin: flagellin (SEQ ID NO 1), an antigen highly abundant in bacteria belonging to Clostridium Clusters IV, XIVa, and XVIII (protein)
chain: MVVQHNLQAMNSNRMLGITQKTASKSTEKLSSGYAINRAADNAAGLAISEKMRKQIRGLTQASTNAEDGISSVQTAEGALTEVHDMLQRMNELAIQAANGTNSEDDRSYIQDEIDQLTQEIDRVAETTKFNETYLLKGDTKNVDAMDYTYSYKAVTTNTVARASVLAAENTATGMSVSISFAANSGKVTAADSNNLAKAIRDQGFTITTSTQNGKVVYGLELNGSDAKANYTVSTVSMEAGTFKILNSNKQVVASVTISTTASFKKVSGMSQIVTAYSVSAAYATGDVYSLYDADGNAISANKLDKYFTAGGATEAGGIATTLSANSGVPKVYDVLGKEVSAVSIASTLVTAVKDKTAALKMNFHVGADGTDNNKIKINIEAMTAKSLGVNGLKVSGSSGTNATNAIEIIAGAIKKVSTQRSALGAVQNRLEHTINNLDNIVENTTAAESGIRDTDMATEMVKYSNANILSQAGQSMLAQSNQSNQGVLQLLQ
colonic Lamina Propria Treg cells specific for the antigen [2]: colonic Lamina Propria Treg cells specific for flagellin were isolated
